Test results taken from article PMC4671956, “Exploiting Transient Protein States for the Design of Small-Molecule Stabilizers of Mutant p53” (Structure(London, England:1993), 2015).

How the values were obtained:
p53 Y220C mutant [1] = molecular target: T1, p53 Y220C mutant (Homo sapiens, UniProt P04637, M133L/N239Y/N268D/V203A/Y220C); parameters: method as in Boeckler et al., 2008; settings: ref Boeckler et al., 2008; cited from earlier work
p53 Y220C mutant [2] = molecular target: T1, p53 Y220C mutant; parameters: method as in Boeckler et al., 2008; settings: ref Boeckler et al., 2008; cited from earlier work; remark: listed apart in the source
p53 Y220C mutant [3] = molecular target: T1, p53 Y220C mutant; assay: Dissociation constant by nuclear magnetic resonance spectroscopy (NMR); type: binding
Description: (§1) Dissociation constants for the binding of ligands to the p53 Y220C mutant were determined by either nuclear magnetic resonance spectroscopy or isothermal calorimetry as described by [Wilcken et al. (2012a)].

p53 Y220C mutant [4] = molecular target: T1, p53 Y220C mutant; assay: Dissociation constant by isothermal calorimetry (ITC); type: binding
Description: as §1

[5] = test system: cancer cell lines expressing the Y220C mutant; parameters: method as in Liu et al., 2013; settings: ref Liu et al., 2013; cited from earlier work
[6] = NMR, p53-Y220C ligand complex, read-out: KD

## CCn1c2ccccc2c2cc(CNC)ccc21 [Compound 1, PhiKan083]
p53 Y220C mutant [1]
  effect on rate of aggregation: slows down its rate of aggregation
p53 Y220C mutant [2]
  effect on melting temperature of the protein: raises the melting temperature of the protein

## CCc1cccc2c(C3CCNCC3)c[nH]c12 [Compound 2]
p53 Y220C mutant [3]; [6]
  Kd: 470 ± 90 µM

## O=C(O)c1cc(I)cc(I)c1O [Compound 4]
p53 Y220C mutant [3]; from KD = 820 μM (NMR)
  ligand efficiency [LE]: 0.35 kcal/mol per non-hydrogen atom

## CCc1cc(Br)cc2c(CCN)c(C)[nH]c12 [Compound 6]
p53 Y220C mutant [3]
  Kd: 940 ± 110 µM

## CN(C)CCn1cc(-c2ccc(F)cc2)c(-n2cccc2)n1 [Compound 7, PhiKan7242]
p53 Y220C mutant [3]; [6]
  Kd: 2400 µM

## Nc1ccc(C(F)(F)F)cc1N [Compound 8]
p53 Y220C mutant [3]; [6]
  Kd: > 10000 µM

## O=C(O)c1cc(I)c(-n2cccc2)c(I)c1O [Compound 9]
p53 Y220C mutant [4]; ITC, p53-Y220C ligand complex
  Kd: 21 µM
p53 Y220C mutant [4]; compound 9 relative to scaffold 4 without pyrrole
  increase in affinity: 40 fold
p53 Y220C mutant [4]; from KD = 21 μM (ITC)
  ligand efficiency [LE]: 0.38 kcal/mol per non-hydrogen atom

## c1ccn(-c2oc(C3CC3)nc2-c2nnn[nH]2)c1 [Compound 10]
p53 Y220C mutant [3]; [6]
  Kd: > 2000 µM

## Nc1cc(C(F)(F)F)cc(Br)c1N [Compound 11]
p53 Y220C mutant [3]; [6]
  Kd: 4800 µM

## O=C(Nc1ccc(Cl)cc1O)C1CCNCC1 [Compound 12]
p53 Y220C mutant [3]; [6]
  Kd: 1270 µM

## Cn1cc(-c2ccccc2)c(-n2cccc2)n1 [PhiKan7088]
[5]
  biological activity in cancer cell lines: biologically active
